# From PMC12692795, “Design and Synthesis of Structurally Modified Analogs of 24Z-Isomasticadienonic Acid with Enhanced Anti-Proliferative Activity” (Molecules, 2025)
# Where two headings read alike, the source gives them in different places.
# Experiments:
# [1] = test system: HL-60 (acute myeloid leukemia); assay: Antitumoral assay (MTS, 72 h), HL-60; conditions: Homo sapiens, HL-60, 72 h, read-out: Cytotoxicity IC50, HL-60
# Experimental: (§1) Human cancer cell lines used in this study included Capan-1, HCT-116, NCI-H460, LN-229, HL-60, K-562, and Z-138, all obtained from the American Type Culture Collection (ATCC). The DND-41 cell line was sourced from the Deutsche Sammlung von Mikroorganismen und Zellkulturen (DSMZ). All cell lines were cultured in media obtained from Gibco Life Technologies, supplemented with 10% fetal bovine serum (HyClone, Logan, UT, USA). […] After overnight incubation to allow cell attachment, cells were treated with a seven-point serial dilution of test compounds, ranging from 100 µM to 0.006 µM. Suspension cell lines were seeded as follows: HL-60, K-562, and Z-138 at 2500 cells/well, and DND-41 at 5500 cells/well, using the same compound concentration range. All treatments were performed in 384-well plates under identical conditions. Following 72 h of compound exposure, cell viability was assessed using the CellTiter 96® AQueous One Solution Cell Proliferation Assay (MTS, Promega, Leiden, The Netherlands), following the manufacturer’s protocol. The final assay mixture contained 333 µg/mL MTS and 25 µM phenazine methosulfate (PMS). Absorbance was measured at 490 nm using a SpectraMax Plus 384 microplate reader (Molecular Devices, San Jose, CA, USA). Optical density values were used to calculate the half-maximal inhibitory concentration (IC50) for each compound. All compounds were tested in a minimum of two independent biological replicates to ensure reproducibility.
# [2] = test system: K-562 (chronic myeloid leukemia); assay: Antitumoral assay (MTS, 72 h), K-562; conditions: Homo sapiens, K562, 72 h, read-out: Cytotoxicity IC50, K562
# Experimental: as §1
# [3] = test system: Z-138 (non-Hodgkin's lymphoma); assay: Antitumoral assay (MTS, 72 h), Z-138; conditions: Homo sapiens, Z-138, 72 h, read-out: Cytotoxicity IC50, Z138
# Experimental: as §1
# [4] = test system: LN-229 (glioblastoma); assay: Antitumoral assay (MTS, 72 h), LN-229; conditions: Homo sapiens, LN-229, 72 h, read-out: Cytotoxicity IC50, LN229
# Experimental: (§2) Human cancer cell lines used in this study included Capan-1, HCT-116, NCI-H460, LN-229, HL-60, K-562, and Z-138, all obtained from the American Type Culture Collection (ATCC). The DND-41 cell line was sourced from the Deutsche Sammlung von Mikroorganismen und Zellkulturen (DSMZ). All cell lines were cultured in media obtained from Gibco Life Technologies, supplemented with 10% fetal bovine serum (HyClone, Logan, UT, USA). Adherent cell lines were seeded in 384-well tissue culture plates at the following densities: Capan-1 at 500 cells/well, and HCT-116, NCI-H460, and LN-229 at 1500 cells/well. After overnight incubation to allow cell attachment, cells were treated with a seven-point serial dilution of test compounds, ranging from 100 µM to 0.006 µM. Suspension cell lines were seeded as follows: HL-60, K-562, and Z-138 at 2500 cells/well, and DND-41 at 5500 cells/well, using the same compound concentration range. All treatments were performed in 384-well plates under identical conditions. Following 72 h of compound exposure, cell viability was assessed using the CellTiter 96® AQueous One Solution Cell Proliferation Assay (MTS, Promega, Leiden, The Netherlands), following the manufacturer’s protocol. The final assay mixture contained 333 µg/mL MTS and 25 µM phenazine methosulfate (PMS). Absorbance was measured at 490 nm using a SpectraMax Plus 384 microplate reader (Molecular Devices, San Jose, CA, USA). Optical density values were used to calculate the half-maximal inhibitory concentration (IC50) for each compound. All compounds were tested in a minimum of two independent biological replicates to ensure reproducibility.
# [5] = test system: DND-41 (acute lymphoblastic leukemia); assay: Antitumoral assay (MTS, 72 h), DND-41; conditions: Homo sapiens, DND41, 72 h, read-out: Cytotoxicity IC50, DND-41
# Experimental: as §1
# [6] = test system: Capan-1 (pancreatic adenocarcinoma); assay: Antitumoral assay (MTS, 72 h), Capan-1; conditions: Homo sapiens, CAPAN-1, 72 h, read-out: Cytotoxicity IC50, Capan-1
# Experimental: as §2
# [7] = test system: HCT-116 (colorectal carcinoma); assay: Antitumoral assay (MTS, 72 h), HCT-116; conditions: Homo sapiens, HCT-116, 72 h, read-out: Cytotoxicity IC50, HCT-116
# Experimental: as §2
# [8] = test system: NCI-H460 (lung carcinoma); assay: Antitumoral assay (MTS, 72 h), NCI-H460; conditions: Homo sapiens, NCI-H460, 72 h, read-out: Cytotoxicity IC50, NCl-H460
# Experimental: as §2
# [9] = test system: panel of human cancer cell lines (Capan-1, HCT-116, LN-229, NCI-H460, DND-41, HL-60, K-562, Z-138); assay: Antitumoral evaluation across the panel of solid and hematological cancer cell lines; conditions: 8 cancer cell lines, 72 h, MTS
# Experimental: as §2
# [10] = test system: peripheral blood mononuclear cells (PBMCs); assay: Cell viability of PBMCs (MTS, 72 h); format: cell-based, Human; conditions: 72 h exposure, duplicate
# Experimental: A buffy coat preparation sourced from a healthy donor was acquired from the Blood Transfusion Center in Leuven, Belgium. Peripheral blood mononuclear cells (PBMCs) were separated using density gradient centrifugation over Lymphoprep (density: 1.077 g/mL) from Nycomed. These cells were then cultured in cell culture medium (RPMI, Gibco, Waltham, MA, USA) supplemented with 10% FBS. The PBMCs were seeded at a density of 28,000 cells per well in 384-well tissue culture plates containing the test compounds at concentrations ranging from 50 µM to 3.2 nM (for compounds 3–11 and IMNA) and from 10 µM to 0.6 nM (for etoposide). Following a 72 h incubation period, cell viability was assessed using the MTS cell viability assay. Each compound was evaluated in duplicate.
# [11] = test system: panel of human cancer cell lines (Capan-1, HCT-116, LN-229, NCI-H460, DND-41, HL-60, K-562, Z-138)
# Experimental: as §2
SMILES,IC50 [1] [µM],IC50 [2] [µM],IC50 [3] [µM],IC50 [4] [µM],IC50 [5] [µM],IC50 [6] [µM],IC50 [7] [µM],IC50 [8] [µM],Cytotoxic / antiproliferative profile across the cancer cell line panel (in words) [9],Toxicity to normal PBMCs ([10]; 10 µM),Cytotoxic / antiproliferative profile across the cancer cell line panel (in words) [11],Effect on viability of normal PBMCs ([10]; 50 µM)
"C/C(=C/CC[C@H](C)[C@@H]1CC[C@]2(C)C3=C(CC[C@@]12C)[C@]1(C)C(CC3)C(C)(C)C(=O)O[C@@H]1O)C(=O)O (stereo partly drawn) [Compound 9, 1α-hydroxy-3-oxa-nor-tirucalla-8,24Z-dien-26-oic acid]",> 50,> 50,> 50,> 50,> 50,39.4 ± 1.5,> 50,> 50,selective cytotoxicity toward Capan-1,,,
"COc1cc([C@@H]2c3cc4c(cc3[C@@H](O[C@@H]3O[C@@H]5CO[C@@H](C)O[C@H]5[C@H](O)[C@H]3O)[C@H]3COC(=O)[C@H]23)OCO4)cc(OC)c1O [Etoposide, reference compound]",0.3 ± 0.12,4.47 ± 0.11,0.08 ± 0.007,4.8 ± 0.87,0.08 ± 0.03,0.24 ± 0.01,1.09 ± 0.19,2.36 ± 0.7,potent antiproliferative activity against all cancer cell lines,did not display toxicity,,
"C/C(=C/CC[C@H](C)[C@@H]1CC[C@]2(C)C3=C(CC[C@@]12C)[C@@]1(C)Cc2cnoc2C(C)(C)[C@@H]1CC3)C(=O)O [Compound 3, (S,Z)-2-Methyl-6-((1S,3aS,5aR,10aS,12aS)-3a,6,6,10a,12a-pentamethyl-2,3,3a,4,5,5a,6,10,10a,11,12,12a-dodecahydro-1H-cyclopenta[7,8]phenanthro[3,2-d]isoxazol-1-yl)hept-2-enoic Acid]",> 50,> 50,> 50,> 50,> 50,6.7 ± 0.4,> 50,> 50,,,selective cytotoxicity toward Capan-1,
"C/C(=C/CC[C@H](C)[C@@H]1CC[C@]2(C)C3=C(CC[C@@]12C)[C@@]1(C)CCC(=O)C(C)(C)C1CC3)C(=O)O (some centres unmarked) [IMNA, 24Z-isomasticadienonic acid]",21.7 ± 3.1,> 50,32.7 ± 3.2,> 50,34.2 ± 2.5,26.5 ± 1.6,42.3 ± 2.3,> 50,intermediate activity across multiple cell lines,,,none of the analogues (compounds 3–11 and IMNA) decreased the viability
"C/C(=C/CC[C@H](C)[C@@H]1CC[C@]2(C)C3=C(CC[C@@]12C)[C@@]1(C)Cc2sc(N)nc2C(C)(C)[C@@H]1CC3)C(=O)O [Compound 5, (S,Z)-6-((1S,3aS,5aR,10aS,12aS)-8-Amino-3a,6,6,10a,12a-pentamethyl-2,3,3a,4,5,5a,6,10,10a,11,12,12a-dodecahydro-1H-cyclopenta[7,8]phenanthro[2,3-d]thiazol-1-yl)-2-methylhept-2-enoic Acid]",19.5 ± 3.2,> 50,25 ± 1.4,27.9 ± 2.9,19 ± 2,23.5 ± 2.4,28.2 ± 1.9,24.5 ± 7.2,,,intermediate activity across multiple cell lines,
"C/C(=C/CC[C@H](C)[C@@H]1CC[C@]2(C)C3=C(CC[C@@]12C)[C@@]1(C)CC(SC#N)C(=O)C(C)(C)C1CC3)C(=O)O (mixture of isomers) [Compound 6, 2-Thiocyanate-3-oxotirucalla-8,24Z-dien-26-oic Acid]",15 ± 1.2,35 ± 3.9,17.9 ± 0.4,23.3 ± 2.9,18.5 ± 0.7,7.4 ± 1,24.3 ± 1.4,21.3 ± 2.3,,,broader antiproliferative activity,
"C/C(=C/CC[C@H](C)[C@@H]1CC[C@]2(C)C3=C(CC[C@@]12C)[C@@]1(C)CC(Br)C(=O)C(C)(C)C1CC3)C(=O)O (mixture of isomers) [Compound 4, 2-Bromo-3-oxotirucalla-8,24Z-dien-26-oic Acid]",14.7 ± 3.3,> 50,> 50,28.5 ± 5.3,20.5 ± 3.9,9.4 ± 1.5,22 ± 0.8,25.1 ± 1.9,,,intermediate activity across multiple cell lines,
"C/C(=C/CC[C@H](C)[C@@H]1CC[C@]2(C)C3=C(CC[C@@]12C)[C@@]1(C)Cc2sc(N4CCOCC4)nc2C(C)(C)[C@@H]1CC3)C(=O)O [Compound 7, (S,Z)-2-Methyl-6-((1S,3aS,5aR,10aS,12aS)-3a,6,6,10a,12a-pentamethyl-8-morpholino-2,3,3a,4,5,5a,6,10,10a,11,12,12a-dodecahydro-1H-cyclopenta[7,8]phenanthro[2,3-d]thiazol-1-yl)hept-2-enoic Acid]",> 50,> 50,> 50,> 50,> 50,26 ± 0.4,> 50,> 50,,,selective cytotoxicity toward Capan-1,
"C/C(=C/CC[C@H](C)[C@@H]1CC[C@]2(C)C3=C(CC[C@@]12C)[C@@]1(C)CC(=O)C(C)(C)C1CC3)C(=O)O (some centres unmarked) [Compound 11, 3-One-1(2→3)-abeotirucalla-8,24Z-dien-26-oic Acid]",29.6 ± 8.9,> 50,> 50,> 50,49.3 ± 0.8,24.6 ± 2.1,> 50,> 50,more limited and restricted cytotoxic profile,,,
